System: B16-F10 murine melanoma cells
Test: Experimental metastasis assay (lung metastases after i.v. injection of cancer cells)
Format: in vivo, female nude (CD-1)BR mice
Conditions: for reduction in the number of lung metastases with respect to untreated controls: DOX 5 mg/kg i.p. +24 h, NAC 2 g/kg p.o. daily
Procedure: DOX was used in the form of commercial injectable product, containing 10 mg of drug per vial (Adriblastina®, Farmitalia - Carlo Erba, Milano, Italia), to be dissolved in distilled water when injected. In the experiments wherein the oral administration was provided, NAC was used in the form of commercial product containing 200 mg of NAC per dosage (Fluimucil®, Zambon Italia, Vicenza), directly dissolved in the drinking water of mice. In the experiments wherein the parenteral (i.p. or i.v.) administration of NAC was foreseen, a 98% pure laboratory reagent (Sigma Chemical Co., St. Louis, MO, U.S.A.) was used, dissolved in a phosphate buffer (PBS), pH 7.4, and furtherly brought to neutrality with NaOH 0.1 N ("spontaneous" metastasis assays) or in NaCl 0.15 M, taking the solution to pH 7.0 (experimental metastasis assays).
A total of 385 adult mice was used (Charles River, Calco, Como, Italia) of which 196 female nude (CD-1)BR mice, aged 7 weeks, average weight of 25 g and 189 female C57BL/6 mice aged 6-8 weeks, average weight of 20 g, used in the experimental metastasis assays and in those of "spontaneous" metastases respectively. The (CD-1)BR mice were housed in sterile cages with filtering cover, in a number of 3 animals per cage, at a room temperature of 26-28°C, with a relative humidity of 55%, a ventilation accounting for 12-15 air/h renewals and a 12 hours day/night cycle; the C57BL/6 mice were stabulated in a number of 5 animals per cage, at a temperature of 25-27°C, with a relative humidity of 50% and a 12 hours day/night cycle. The (CD-1)BR mice received a special diet sterilized under vacuum (Mucedola S.r.L, Settimo Milanese, Milano, Italia) and sterilized drinking water; the C57BL/6 mice received a standard rodent diet (MIL Topi e Ratti, Morini, S. Polo d'Enza, Reggio Emilia, Italia) and drinking water ad libitum throughout the duration of the experiments. Within the experiments wherein the sacrifice of mice was foreseen at a scheduled time, killing was carried out by means of ethyl ether anaesthesia and subsequent cervical dislocation. The stabulation and all the animal treatments were carried out in accordance with the national and Community guidelines (D.L. 27.01.1992 N. 116; 86/609/EEC Directive).
In this kind of assay cancer cells were injected in the lateral tail vein, in order to avoid the formation of primary tumors and directly provide the spread of metastases in the lungs. B16-F10 murine melanoma cells were used, resuspended in serum-free Eagle's MEM medium, and injected i.v. in a volume of 100 µl (5 x 10^4 cells/mouse). As reported in Table 1, wherein also the number of mice included in each experimental group is indicated, 4 groups were always involved in each experiment, namely a control group (either untreated mice or treated with NaCl 0.15M), a group of mice treated with DOX only, a group of mice treated with NAC only and a group of mice treated with the two combined drugs.
In particular, in experiment #1 DOX was injected in a single dose (5 mg/kg body weight) by i.p. route 24 hours after injection of cancer cells, whereas NAC was administered every day with drinking water, at a calculated dose of 2 g/kg body weight, starting 3 days before injection of cancer cells and continuing throughout the duration of the experiment.
In experiment #2 DOX was injected in a single dose (10 mg/kg body weight) by i.v. route 3 days after injection of cancer cells, whereas NAC was administered daily by i.p. route (1 g/kg body weight), starting 8 hours before injection of cancer cells and continuing for 8 days.
In experiment #3 both DOX and NAC were injected by i.v. route 24 hours after injection of cancer cells, […]; in the combined treatment therefore the two drugs were injected after being mixed into the same syringe.
In experiment #4, wherein the control and DOX groups were the same as experiment #3, NAC was injected by i.v. route together with cancer cells, dissolved in the culture medium at a concentration of 10 mM. […]

[1] = experiment #1, DOX 5 mg/kg i.p. +24h, NAC 2 g/kg p.o. -3/+25 days, DOX+NAC same doses, killed at 25 days
[2] = experiment #1, combined same doses
[3] = experiment #2, DOX 10 mg/kg i.v. +3 days, NAC 1 g/kg i.p. -8 h/+8 days, DOX+NAC same doses, killed at 29 days
[4] = experiment #2, DOX 10 mg/kg i.v. +3 days, NAC 1 g/kg i.p. daily -8 h/+8 days, combined same doses
[5] = experiment #3, DOX 1 mg/kg i.v. +24 h, NAC 6.4 mg/kg i.v. +24 h, combined in the same injection
[6] = experiment #3, DOX 1 mg/kg i.v. +24 h, NAC 6,4 mg/kg i.v. +24 h, DOX+NAC mixed in the same syringe, killed at 27 days
[7] = experiment #4, DOX 1 mg/kg i.v. +24 h, NAC 10 mM in cancer cells culture medium, combined same doses
[8] = experiment #4, DOX 1 mg/kg i.v. +24 h, NAC 10 mM in culture medium of the injected cancer cells, DOX+NAC same doses, killed at 27 days
[9] = experiment #2, NAC 1 g/kg i.p. daily -8 h/+8 days

| Structure (SMILES) | Lung metastases No. (mean ± ES) [1] [No.] | Mice with metastases (No.) 0 [1] [No.] | Mice with metastases (No.) 1-10 [1] [No.] | Mice with metastases (No.) 11-50 [1] [No.] | Mice with metastases (No.) ≥51 [1] [No.] | reduction in the number of lung metastases with respect to untreated controls [2] [fold] | Lung metastases No. (mean ± ES) [3] [No.] | Mice with metastases (No.) 0 [3] [No.] | Mice with metastases (No.) 1-10 [3] [No.] | Mice with metastases (No.) 11-50 [3] [No.] | Mice with metastases (No.) ≥51 [3] [No.] | reduction in the number of lung metastases with respect to controls [4] [fold] | reduction in the number of lung metastases with respect to controls [5] [fold] | Lung metastases No. (mean ± ES) [6] [No.] | Mice with metastases (No.) 0 [6] [No.] | Mice with metastases (No.) 1-10 [6] [No.] | Mice with metastases (No.) 11-50 [6] [No.] | Mice with metastases (No.) ≥51 [6] [No.] | reduction in the number of lung metastases with respect to controls [7] [fold] | Lung metastases No. (mean ± ES) [8] [No.] | further results |
| --- | --- | --- | --- | --- | --- | --- | --- | --- | --- | --- | --- | --- | --- | --- | --- | --- | --- | --- | --- | --- | --- |
| COc1cccc2c1C(=O)c1c(O)c3c(c(O)c1C2=O)C[C@@](O)(C(=O)CO)C[C@@H]3O[C@H]1C[C@H](N)[C@H](O)[C@H](C)O1 [DOX, Doxorubicin] | 13.1 ± 11.6 | 2 | 4 | 5 | 0 | 4.1 | 0.7 ± 0.3 | 10 | 5 | 0 | 0 | 17.4 | 1.3 | 29.2 ± 13.7 | 3 | 5 | 0 | 3 | 1.3 | 29.2 ± 13.7 | frequency of mice affected by metastases (experiment #2, DOX 10 mg/kg i.v. +3 days, NAC 1 g/kg i.p. daily, controls 66.7%): 33.3%; Mice with metastases (No.) 0 [8]: 3 No.; Mice with metastases (No.) 1-10 [8]: 5 No.; Mice with metastases (No.) 11-50 [8]: 0 No.; Mice with metastases (No.) ≥51 [8]: 3 No.; modulating the induction of lung metastases (effect in words) (experiments #3 and #4, DOX 1 mg/kg i.v. +24 h): almost ineffective at all |
| CC(=O)N[C@@H](CS)C(=O)O [NAC, N-acetyl-cysteine] | 42.1 ± 15.8 | 0 | 3 | 7 | 2 | 1.3 | 25.1 ± 10.2 | 5 | 4 | 3 | 3 | 0.5 | 2.8 | 13.1 ± 8.9 | 5 | 2 | 3 | 1 | 14.7 | 2.5 ± 0.7 | frequency of animals with metastases (effect in words) [9]: did not affect; multiplicity of lung metastases (effect in words) [9]: even increased their multiplicity, but not to a significant extent; Mice with metastases (No.) 0 [8]: 4 No.; Mice with metastases (No.) 1-10 [8]: 7 No.; Mice with metastases (No.) 11-50 [8]: 0 No.; Mice with metastases (No.) ≥51 [8]: 0 No. |
